Measurements published in PubChem BioAssay AID248 (DTP/NCI, 2004).
Where “and” joins values, the source holds several entries; their conditions need not be identical. Equal entries are not always repeated. Toxic doses and inconclusive results are not listed. Rule as the data show it: active = T/C of 150% or more; inactive = T/C below 125%. Peptide text beside a SMILES is read from it. * marks the point of attachment. Cbz = O=C(OCc1ccccc1)*

Test system: L1210 leukemia ip in BDF1 mice, survival T/C
Assay: NCI In Vivo Anticancer Drug Screen. Data for tumor model L1210 Leukemia (intraperitoneal) in B6D2F1 (BDF1) mice
Details: endpoint: mean survival time, higher = longer survival
In short: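 Mice bearing the transplanted tumor received compound or vehicle. Survival of the treated group was divided by that of the vehicle-treated control group to give the ratio.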

[1] = dose: 100.0 mg/kg/injection, schedule: Q01DX009 (ip), vehicle: Klucel (hydroxypropylcellulose) (HPC)
[2] = dose: 200.0 mg/kg/injection, schedule: Q01DX009 (ip), vehicle: Klucel (hydroxypropylcellulose) (HPC)
[3] = dose: 100.0 mg/kg/injection, schedule: Q04DX003 (ip), vehicle: Klucel (hydroxypropylcellulose) (HPC)
[4] = dose: 200.0 mg/kg/injection, schedule: Q04DX003 (ip), vehicle: Klucel (hydroxypropylcellulose) (HPC)
[5] = dose: 400.0 mg/kg/injection, schedule: Q04DX003 (ip), vehicle: Klucel (hydroxypropylcellulose) (HPC)
[6] = dose: 50.0 mg/kg/injection, schedule: Q01DX009 (ip), vehicle: saline with Tween-80
[7] = dose: 100.0 mg/kg/injection, schedule: Q01DX009 (ip), vehicle: saline with Tween-80
[8] = dose: 200.0 mg/kg/injection, schedule: Q01DX009 (ip), vehicle: saline with Tween-80
[9] = dose: 100.0 mg/kg/injection, schedule: Q01DX001 (ip), vehicle: other
[10] = dose: 200.0 mg/kg/injection, schedule: Q01DX001 (ip), vehicle: other
[11] = dose: 400.0 mg/kg/injection, schedule: Q01DX001 (ip), vehicle: other
[12] = dose: 100.0 mg/kg/injection, schedule: Q04DX003 (ip), vehicle: saline with Tween-80
[13] = dose: 200.0 mg/kg/injection, schedule: Q04DX003 (ip), vehicle: saline with Tween-80
[14] = dose: 400.0 mg/kg/injection, schedule: Q04DX003 (ip), vehicle: saline with Tween-80
[15] = dose: 400.0 mg/kg/injection, schedule: Q01DX009 (ip), vehicle: Klucel (hydroxypropylcellulose) (HPC)

Measured: T/C

CCCCN(CCCC)CCCNC(=S)Nc1ccccc1
inactive: [1] 94 % of control | [2] 100 % of control

CCC(CC)NCCOC(=O)c1ccc(N)cc1
inactive: dose: 75.0 mg/kg/injection, schedule: Q01DX001 (ip), vehicle: saline 100 % of control | dose: 150.0 mg/kg/injection, schedule: Q01DX001 (ip), vehicle: saline 98 % of control

Cc1cc2c(-c3ccccc3)nc3ccccc3n2c1Cl
inactive: dose: 50.0 mg/kg/injection, schedule: Q01DX009 (ip), vehicle: Klucel (hydroxypropylcellulose) (HPC) 92 % of control | [1] 95 % of control | [2] 103 % of control

CC1(C)N=C(N)N=C(N)N1c1cccc(CC(C(=O)Nc2ccc(S(=O)(=O)F)cc2)c2ccccc2)c1 (stereo unspecified)
inactive: dose: 25.0 mg/kg/injection, schedule: Q01DX001 (ip), vehicle: Klucel (hydroxypropylcellulose) (HPC) 95 % of control | dose: 50.0 mg/kg/injection, schedule: Q01DX001 (ip), vehicle: Klucel (hydroxypropylcellulose) (HPC) 95 % of control | dose: 100.0 mg/kg/injection, schedule: Q01DX001 (ip), vehicle: Klucel (hydroxypropylcellulose) (HPC) 94 % of control and 95 % of control | dose: 200.0 mg/kg/injection, schedule: Q01DX001 (ip), vehicle: Klucel (hydroxypropylcellulose) (HPC) 101 % of control

COc1ccc(CCNC(=O)C(=O)NCCc2ccc(OC)c(OC)c2)cc1OC
inactive: [3] 101 % of control | [4] 89 % of control | [5] 92 % of control

Cc1ccc(S(=O)(=O)OCC2OC(n3cnc4c(N)ncnc43)C(O)C2O)cc1 (stereo unspecified)
inactive: dose: 100.0 mg/kg/injection, schedule: Q01DX005 (ip), vehicle: saline 105 % of control | dose: 200.0 mg/kg/injection, schedule: Q01DX005 (ip), vehicle: saline 95 % of control

COc1ccc(Cc2nnc(Cc3ccc(OC)c(OC)c3)nn2)cc1OC
inactive: [6] 89 % of control | [7] 93 % of control | [8] 87 % of control

COc1ccc(Br)cc1CCC=O
inactive: dose: 100.0 mg/kg/injection, schedule: Q01DX001 (ip), vehicle: carboxymethylcellulose (CMC) 100 % of control | dose: 200.0 mg/kg/injection, schedule: Q01DX001 (ip), vehicle: carboxymethylcellulose (CMC) 100 % of control | dose: 400.0 mg/kg/injection, schedule: Q01DX001 (ip), vehicle: carboxymethylcellulose (CMC) 100 % of control

CCCCCCCCCCCCCC#N
inactive: [9] 101 % of control | [10] 92 % of control | [11] 92 % of control

CCOC(=O)N/N=C/c1cccs1
inactive: dose: 100.0 mg/kg/injection, schedule: Q01DX001 (ip), vehicle: saline 98 % of control | dose: 200.0 mg/kg/injection, schedule: Q01DX001 (ip), vehicle: saline 96 % of control | dose: 400.0 mg/kg/injection, schedule: Q01DX001 (ip), vehicle: saline 98 % of control

Cc1cccc(NCc2ccc(Cl)cc2Cl)c1
inactive: [6] 106 % of control | [7] 103 % of control | [12] 93 % of control and 88 % of control | [8] 98 % of control | [13] 95 % of control | [14] 96 % of control and 101 % of control

CN(C)S(=O)(=O)c1ccc(NC(=O)C(Cl)(Cl)Cl)cc1
inactive: [9] 104 % of control | [1] 94 % of control | dose: 100.0 mg/kg/injection, schedule: Q04DX003 (ip), vehicle: other 101 % of control | [10] 96 % of control | [2] 92 % of control | dose: 200.0 mg/kg/injection, schedule: Q04DX003 (ip), vehicle: other 95 % of control | [11] 98 % of control | dose: 400.0 mg/kg/injection, schedule: Q04DX003 (ip), vehicle: other 93 % of control

CC(=O)Nc1ncccc1C
inactive: dose: 5.0 mg/kg/injection, schedule: Q01DX001 (ip), vehicle: saline 94 % of control | dose: 10.0 mg/kg/injection, schedule: Q01DX001 (ip), vehicle: saline 96 % of control | dose: 20.0 mg/kg/injection, schedule: Q01DX001 (ip), vehicle: saline 101 % of control | dose: 40.0 mg/kg/injection, schedule: Q01DX001 (ip), vehicle: saline 100 % of control

CC(=O)CCCCc1ccccc1
inactive: dose: 100.0 mg/kg/injection, schedule: Q04DX002 (ip), vehicle: Klucel (hydroxypropylcellulose) (HPC) 88 % of control | dose: 200.0 mg/kg/injection, schedule: Q04DX002 (ip), vehicle: Klucel (hydroxypropylcellulose) (HPC) 102 % of control | dose: 400.0 mg/kg/injection, schedule: Q04DX002 (ip), vehicle: Klucel (hydroxypropylcellulose) (HPC) 88 % of control

CCOC(=O)Nc1cc(N)c2nnn(C(c3ccccc3)c3ccccc3)c2n1
inactive: [3] 92 % of control | [4] 91 % of control | [5] 91 % of control

O=C(NC(=S)Nc1ccc(Cl)cc1C(=O)c1ccccc1)c1ccc(Cl)cc1Cl
inactive: [1] 93 % of control | [2] 96 % of control | [15] 94 % of control

CCC1CN2CCc3cc(OC)c(OC)cc3C2CC1O (stereo unspecified)
inactive: [7] 97 % of control | [8] 110 % of control

COc1cc(/C=N/O)ccc1O
inactive: [6] 97 % of control and 105 % of control | [7] 97 % of control and 102 % of control | [12] 96 % of control | [8] 107 % of control and 112 % of control | [13] 87 % of control | [14] 91 % of control

O=C(NC/C(Br)=C/Br)Nc1c2ccccc2nc2ccccc12
inactive: dose: 10.0 mg/kg/injection, schedule: Q01DX009 (ip), vehicle: Klucel (hydroxypropylcellulose) (HPC) 96 % of control | dose: 20.0 mg/kg/injection, schedule: Q01DX009 (ip), vehicle: Klucel (hydroxypropylcellulose) (HPC) 107 % of control | dose: 40.0 mg/kg/injection, schedule: Q01DX009 (ip), vehicle: Klucel (hydroxypropylcellulose) (HPC) 89 % of control | dose: 75.0 mg/kg/injection, schedule: Q01DX009 (ip), vehicle: Klucel (hydroxypropylcellulose) (HPC) 89 % of control | [3] 102 % of control | [4] 94 % of control | [5] 94 % of control

Nc1ccc(S(=O)(=O)c2cc(CC(N)C(=O)O)cc(O)c2O)cc1 (stereo unspecified)
inactive: dose: 87.5 mg/kg/injection, schedule: Q01DX009 (ip), vehicle: saline 98 % of control | dose: 175.0 mg/kg/injection, schedule: Q01DX009 (ip), vehicle: saline 96 % of control | dose: 350.0 mg/kg/injection, schedule: Q01DX009 (ip), vehicle: saline 86 % of control

O=C(O)CNC(=O)CNC(=O)OCc1ccccc1 (Cbz-Gly-Gly-OH)
inactive: [1] 95 % of control | [3] 97 % of control | [2] 95 % of control | [4] 101 % of control | [15] 100 % of control | [5] 94 % of control

CCCCCCCCCCCCCCCCCCNC(=O)C[N+](C)(C)Cc1ccccc1
inactive: dose: 3.13 mg/kg/injection, schedule: Q01DX009 (ip), vehicle: saline with Tween-80 93 % of control | dose: 6.25 mg/kg/injection, schedule: Q01DX009 (ip), vehicle: saline with Tween-80 98 % of control | dose: 12.5 mg/kg/injection, schedule: Q01DX009 (ip), vehicle: saline with Tween-80 89 % of control

CN(N=O)C(=O)N(C)C(=O)N(C)N=O
inactive: dose: 6.25 mg/kg/injection, schedule: Q01DX Z (ip), vehicle: carboxymethylcellulose (CMC) 104 % of control | dose: 12.5 mg/kg/injection, schedule: Q01DX Z (ip), vehicle: carboxymethylcellulose (CMC) 112 % of control | dose: 25.0 mg/kg/injection, schedule: Q01DX Z (ip), vehicle: carboxymethylcellulose (CMC) 108 % of control | dose: 50.0 mg/kg/injection, schedule: Q01DX Z (ip), vehicle: carboxymethylcellulose (CMC) 92 % of control
